The values below are quoted from earlier work in patent US4690936A (priority 1980, dated 1987).

Non-standard residues stand in square brackets, D forms with d. Residues, ends and D or L forms follow the SMILES beside them. No end group written: not given here. pGlu = O=C1CC[C@@H](C(=O)O)N1

This series concerns ACE. Particulars: competitive substrate rather than true inhibitor.

For RPPGFSPFR [bradykinin], the “type of ACE interaction (lower Km than angiotensin I)” value is “competitive substrates”.

As for `C[C@H](NC(=O)[C@H](Cc1c[nH]c2ccccc12)NC(=O)[C@H](CCCCN)NC(=O)[C@@H]1CCC(=O)N1)C(=O)N1CCC[C@H]1C(=O)O` [BPP5a, <GluLysTrpAlaPro] ([pGlu]KWAP-OH), the “type of ACE interaction (lower Km than angiotensin I)” value was “competitive substrates”.
